Where two headings read alike, the source gives them in different places.

As a reminder, the AUC(0-inf) is the area under the concentration-time curve extrapolated to infinity. A low value points to less exposure. The Cmax is the maximum level reached in the sampled fluid or tissue. One may read the Tmax as the time from dosing to the highest level. In general, half-life refers to the time in which the quantity being followed falls by half. As usually defined, the Vd/F is the apparent distribution volume after extravascular dosing.

The format of data set [1] is in vivo, human. Conditions: for Shape of plasma concentration-time profile: after oral Gumiganghwal-tang tablets (9.6 g), humans; for AUC(0-inf) / Cmax / Tmax / half-life / Vd/F: male, human, po, 9.6 g; for Detection in human plasma: after oral Gumiganghwal-tang tablets at maximum daily dose (9.6 g).
A short description of data set [2]: Freeze-thaw stability in human plasma. The format is in vitro ADME. Particulars: −80 °C/25 °C, mean ± SD, n = 5, %.

Turning to `CC1(C)[C@@H](O)CC[C@]2(C)[C@H]3C(=O)C=C4[C@@H]5C[C@@](C)(C(=O)O)CC[C@]5(C)CC[C@@]4(C)[C@]3(C)CC[C@@H]12` [18-beta-glycyrrhetinic acid], the “Shape of plasma concentration-time profile” value (“Shape” below) in data set [1] is “double peaks”. Moreover, in data set [1] (plasma), the AUC(0-inf) worked out at 0.988 ± 0.125 µg·h/mL, the Cmax came to 0.0897 ± 0.0144 µg/mL, the Tmax was found to be 6.42 ± 1.01 h and the half-life was 12.1 ± 2.28 h.

Take `C=C1CCC[C@]2(C)C[C@]3(O)OC(=O)C(C)=C3C[C@@H]12` [Atractylenolide III, atractylenolide III]: in data set [1], the “Shape” value is “double peaks”. Besides, in data set [1] (plasma), the AUC(0-inf) was found to be 0.417 ± 0.0993 µg·h/mL, the highest level (Cmax) was 0.0175 ± 0.0056 µg/mL, the Tmax is 4.33 ± 1.21 h and the Vd/F is 26.2 ± 6.26 L. This molecule also showed a half-life in data set [1] (plasma) of 24.2 ± 5.29 h. Moreover, the “Freeze-thaw stability (3 cycles)” value in data set [2] (spiked conc. 2 ng/mL) came to 99.57 ± 2.04%. Also, the “Freeze-thaw stability (3 cycles)” value in data set [2] (spiked conc. 400 ng/mL) was found to be 96.73 ± 4.82%.

For `OCC1=C[C@@H](O)[C@@H]2C=CO[C@@H](O[C@@H]3O[C@H](CO)[C@@H](O)[C@H](O)[C@H]3O)[C@H]12` [Aucubin, aucubin], the “Detection in human plasma” value in data set [1] was “not detected”. For the same molecule, the “Freeze-thaw stability (3 cycles)” value in data set [2] (spiked conc. 2 ng/mL) was 97.78 ± 4.39%; in data set [2] (spiked conc. 500 ng/mL) it was 100.15 ± 2.79%.

Consider `O=c1cc(-c2ccccc2)oc2cc(O)c(O)c(O)c12` [Baicalein, baicalein], for which the “Shape” value in data set [1] is on record as “double peaks”. For the same molecule, in data set [1] (plasma), the AUC(0-inf) was determined as 0.54 ± 0.122 µg·h/mL, the Cmax worked out at 0.0527 ± 0.0212 µg/mL, the time to peak (Tmax) was 0.78 ± 0.23 h and the half-life is 7.78 ± 1.91 h. The “Freeze-thaw stability (3 cycles)” value in data set [2] (spiked conc. 2 ng/mL) turned out to be 96.92 ± 5.31%. Further, in data set [2] (spiked conc. 400 ng/mL), the “Freeze-thaw stability (3 cycles)” value stood at 100.00 ± 2.30%.

Take `O=C(O)[C@H]1O[C@@H](Oc2cc3oc(-c4ccccc4)cc(=O)c3c(O)c2O)[C@H](O)[C@@H](O)[C@@H]1O` [Baicalin, baicalin]: the “Shape” value in data set [1] is “double peaks”. For the same molecule, in data set [1] (in vivo), the area under the curve AUC(0-inf) is 805 ± 121 µg·h/mL, the Cmax is 34.3 ± 5.22 µg/mL, the Tmax worked out at 7.99 ± 1.52 h and the Vd/F amounted to 2.5 ± 0.21 L. The molecule also had a half-life in data set [1] (in vivo) of 14.4 ± 3.98 h. Further, the “Freeze-thaw stability (3 cycles)” value in data set [2] (spiked conc. 2 ng/mL) was determined as 99.53 ± 2.03%. Besides, the “Freeze-thaw stability (3 cycles)” value in data set [2] (spiked conc. 400 ng/mL) is 97.95 ± 3.22%.

Turning to `OC[C@H]1O[C@@H](O[C@@H]2OC=C[C@H]3[C@H](O)[C@@H]4O[C@]4(CO)[C@@H]23)[C@H](O)[C@@H](O)[C@@H]1O` [Catalpol, catalpol], in data set [1], the “Detection in human plasma” value is “not detected”. In addition, the “Freeze-thaw stability (3 cycles)” value in data set [2] (spiked conc. 2 ng/mL) was determined as 101.28 ± 2.95%; in data set [2] (spiked conc. 500 ng/mL), 100.03 ± 2.84%.

Turning to `CC1(C)[C@@H](O[C@H]2O[C@H](C(=O)O)[C@@H](O)[C@H](O)[C@H]2O[C@@H]2O[C@H](C(=O)O)[C@@H](O)[C@H](O)[C@H]2O)CC[C@]2(C)[C@H]3C(=O)C=C4[C@@H]5C[C@@](C)(C(=O)O)CC[C@]5(C)CC[C@@]4(C)[C@]3(C)CC[C@@H]12` [Glycyrrhizin, glycyrrhizin], the “Shape” value in data set [1] is on record as “double peaks”. Besides, in data set [1] (plasma), the AUC(0-inf) was found to be 0.0676 ± 0.0153 µg·h/mL, the highest level (Cmax) was 0.00216 ± 0.00104 µg/mL, the Tmax came to 8.04 ± 1.16 h and the Vd/F amounted to 5860 ± 1090 L. The molecule further had a half-life in data set [1] (plasma) of 28.8 ± 4.24 h. For the same molecule, the “Freeze-thaw stability (3 cycles)” value in data set [2] (spiked conc. 2 ng/mL) turned out to be 97.58 ± 4.38%. Further, the “Freeze-thaw stability (3 cycles)” value in data set [2] (spiked conc. 400 ng/mL) worked out at 99.43 ± 2.90%.

As to `CC(C)=CCOc1c2occc2cc2ccc(=O)oc12` [Imperatorin, imperatorin], the “Detection in human plasma” value in data set [1] is “not detected”. In addition, the “Freeze-thaw stability (3 cycles)” value is 98.44 ± 2.60% in data set [2] (spiked conc. 2 ng/mL) and 101.28 ± 2.93% in data set [2] (spiked conc. 400 ng/mL).

In the case of `C=CCc1ccc(OC)c(OC)c1` [Methyl eugenol, methyl eugenol], in data set [1], the “Detection in human plasma” value is listed as “not detected”. Besides, the “Freeze-thaw stability (3 cycles)” value in data set [2] (spiked conc. 5 ng/mL) came to 98.48 ± 2.51%; in data set [2] (spiked conc. 400 ng/mL) it was 101.10 ± 2.84%.

Consider `CC(C)=CC(O)C/C(C)=C/COc1c2ccoc2cc2oc(=O)ccc12` (stereo not drawn) [Notopterol, notopterol], for which, in data set [1], the “Detection in human plasma” value was “not detected”. In addition, the “Freeze-thaw stability (3 cycles)” value was found to be 97.79 ± 3.42% in data set [2] (spiked conc. 2 ng/mL) and 99.46 ± 2.59% in data set [2] (spiked conc. 400 ng/mL).

As to `CC1(C)O[C@H]1COc1c2ccoc2cc2oc(=O)ccc12` [Oxypeucedanin, oxypeucedanin], the “Shape” value in data set [1] is reported as “double peaks”. In addition, in data set [1] (plasma), the AUC(0-inf) was determined as 0.449 ± 0.103 µg·h/mL, the Cmax came to 0.00446 ± 0.00129 µg/mL, the Tmax amounted to 8.25 ± 2.07 h and the Vd/F was 275 ± 56.4 L. The molecule further gave a half-life in data set [1] (plasma) of 70.5 ± 10.6 h. For the same molecule, in data set [2] (spiked conc. 2 ng/mL), the “Freeze-thaw stability (3 cycles)” value was 100.16 ± 1.88%. Moreover, the “Freeze-thaw stability (3 cycles)” value in data set [2] (spiked conc. 400 ng/mL) amounted to 99.31 ± 2.36%.

As for `O=c1ccc2cc3ccoc3c(O)c2o1` [Xanthotoxol, xanthotoxol], the “Shape” value in data set [1] is recorded as “double peaks”. In data set [1] (plasma), the total exposure AUC(0-inf) was determined as 0.11 ± 0.0386 µg·h/mL, the Cmax was 0.00378 ± 0.00139 µg/mL, the Tmax amounted to 4.48 ± 1.76 h and the half-life was 8.98 ± 3.01 h. The “Freeze-thaw stability (3 cycles)” value in data set [2] (spiked conc. 2 ng/mL) came to 102.24 ± 4.31%. In data set [2] (spiked conc. 400 ng/mL), the “Freeze-thaw stability (3 cycles)” value is given as 98.83 ± 2.95%.

For the origin of these results see paper PMC8424372 (Journal of Pharmaceutical Analysis, 2020).
